Tested on: Hepatitis C virus
Test: Antiviral activity against Hepatitis C virus genotype 1a expressing neomycin phosphotransferase after 3 days by luciferase reporter gene assay
Assay type: functional, organism-based, Hepacivirus hominis
Details: subtype 1a, 72 h

Compound | EC50
COC(=O)N[C@H](C(=O)N1CC2(C[C@H]1c1ncc(-c3ccc4cc(-c5ccc6c(=O)[nH]c([C@@H]7C[C@H]8C[C@H]8N7C(=O)[C@@H](NC(=O)OC)C(C)C)nc6c5)ccc4c3)[nH]1)OCCO2)C(C)C | 8 pM
COC(=O)N[C@H](C(=O)N1CC2(C[C@H]1c1nc3cc(-c4ccc5cc(-c6cnc([C@@H]7C[C@H]8C[C@H]8N7C(=O)[C@@H](NC(=O)OC)C(C)C)[nH]6)ccc5c4)ccc3c(=O)[nH]1)OCCCO2)C(C)C | 26 pM
COC(=O)N[C@H](C(=O)N1CCC[C@H]1c1ncc(-c2ccc3cc(-c4ccc5c(=O)[nH]c([C@@H]6C[C@@H]7CCCC[C@@H]7N6C(=O)[C@@H](NC(=O)OC)C(C)C)nc5c4)ccc3c2)[nH]1)C(C)C | 6 pM
COC(=O)N[C@H](C(=O)N1CCC[C@H]1c1nc2cc(-c3ccc4cc(-c5cnc([C@@H]6C[C@H]7C[C@H]7N6C(=O)[C@@H](NC(=O)OC)C(C)C)[nH]5)ccc4c3)ccc2c(=O)[nH]1)C(C)C | 6 pM
